Tests used:
Raji tumor xenografts = test: Raji xenograft in NSG mice treated with inhibitor-preconditioned rituximab CAR-T cells; assay type: in vivo; conditions: for prolonged median survival compared to vehicle (DMSO)-treated rituximab CAR-T cells: two doses of preconditioned rituximab CAR-T cells
Protocol: FIG. 2A-C. […] (A) Tumor signal (in photons/sec/cm^2/sr) in individual animals as quantified by bioluminescence imaging. […] Statistical significance was determined by Mann-Whitney U test with Holm-Sidak correction for multiple comparisons. * p<0.05, n.s. not statistically significant. (B) Kaplan-Meier survival curve (top) and table of median survival period in days (bottom). (C) Frequency of human CD45+EGFRt+ cell in peripheral blood collected from mice on day 8 after first dose of T-cell infusion. Statistical significance was determined by two-tailed Student's t test with Sidak correction for multiple comparisons. * p<0.05, ** p<0.01.
In vivo studies. Six- to eight-week-old NOD/SCID/IL-2Rγ^null (NSG) mice were obtained from UCLA Department of Radiation and Oncology. The protocol was approved by UCLA Institutional Animal Care and Used Committee. […] Details of the dose and timing of tumor injection, T-cell injection, and tumor re-challenge are indicated in the text and figures. Tumor progression/regression was monitored with an IVIS Illumina III LT Imaging System (PerkinElmer). Blood samples were harvested via retro-orbital bleeding 3 days post T-cell injection and every 10-13 days thereafter. Mice were euthanized at the humane endpoint. Bone marrow, spleen and liver were collected after euthanasia. Tissues were ground and passed through a 100-μm filter followed by red-blood-cell lysis prior to flow-cytometry analysis.

rituximab CAR-T cells [1] = test: Antigen-independent activation and exhaustion marker expression by flow cytometry, rituximab CAR-T cells; assay type: cell-based, human; conditions: 5 days inhibitor culture, no antigen, vs vehicle (DMSO), CAL-101 1 μM, AZD5363 1 μM
Excerpt: FIG. 1A-G. Pharmacological inhibition of PI3K/AKT pathway modulates antigen-independent CAR-T cell activation. (A) Table of pharmacological inhibitors used during ex vivo expansion of rituximab CAR-T cells (left). Simplified schematic of the PI3K/AKT signaling axis where black arrows represent activation (right). (B) Activation marker expression by CAR^+ T cells in the absence of antigen stimulation after 5 days of pharmacological modulation. Data bars indicate the means of technical triplicates±1 S.D. The bars in FIG. 1B represent data from, untreated, vehicle, CAL-101, AZD5363, Rapamycin, MYCi975, and Betulin, respectively, from left to right. (C) TNF-α production CAR^+ T cells in the absence of antigen stimulation as quantified by intracellular flow cytometry. Data bars indicate the means of technical triplicates±1 S.D. The bars in FIG. 1B and FIG. 1C represent data from, untreated, vehicle, CAL-101, AZD5363, Rapamycin, MYCi975, and Betulin, respectively, from left to right. (D) Proliferation of CAR^+ T cells stained with CellTrace Violet (CTV) dye was assayed after a 4-day culture in the absence of target cells or exogenous cytokines. Data shown in the histogram correspond to one of technical triplicates shown in the bar graph. The bars FIG. 1D represent data from, EGFRt, untreated, vehicle, CAL-101, AZD5363, Rapamycin, MYCi975, and Betulin, respectively, from left to right. (E) % distribution of T-cell subtypes in CAR^+ T cells after 5 days of pharmacological modulation. Data bars indicate the means of technical triplicates±1 S.D. (F) Rituximab CAR-T cell fold expansion after 6 days of inhibitor culture was tracked. T-cell fold expansion was normalized to the untreated control with each data point representing biological replicates collected from healthy donors. The bars FIG. 1F represent data from, EGFRt, vehicle, CAL-101, AZD5363, Rapamycin, MYCi975, and Betulin, respectively, from left to right. (G) A 24-hr lysis assay of CD20 CAR-T cells against Raji target cells at three effector-to-target (E:T) ratios. Data bars indicate the means of technical triplicates±1 S.D. Percent lysis was normalized to cell counts in target-only wells. […] In (B)-(F), results are representative two independent experiments using cells from of two heathy donors. Statistical significance in panels B, C, and D was determined by two-tailed Student's t test with Sidak correction for multiple comparisons. * p<0.05, ** p<0.01, *** p<0.001, n.s. not statistically significant. […]
(§1) Antibody staining for flow-cytometry analysis. EGFRt expression was measured with biotinylated cetuximab (Eli Lilly; biotinylated in-house), followed by PE-conjugated streptavidin (Jackson ImmunoResearch #016-110-084). CAR expression was quantified by surface epitope staining using anti-Fc (Alexa Fluor 488, Jackson ImmunoResearch #709-546-098). Antigen-independent activation-marker expression of CAR-T cells was evaluated by antibody staining for CD137 (PE/Cy7, clone 4B4-1, BioLegend #309818), and PD-1 (FITC, clone EH12.2H7, BioLegend #329904) on Days 18 (i.e., 18 days after Dynabead addition and 11 days after Dynabead removal) and after 5-6 days of inhibitor culture (FIG. 1, FIG. 3). T-cell subtype of CAR-T cells was evaluated by antibody staining for CD45RO (VioBlue®, clone REA611, Miltenyi #130-119-620) and CD62L (APC, clone DREG56, Invitrogen #17-0629-42) after 5-6 days of inhibitor culture (FIG. 1, FIG. 3). […]

rituximab CAR-T cells [2] = test: TNF-α production without antigen stimulation, intracellular flow cytometry, rituximab CAR-T cells; assay type: cell-based, human; conditions: vs vehicle (DMSO)
Excerpt: (§2) FIG. 1A-G. Pharmacological inhibition of PI3K/AKT pathway modulates antigen-independent CAR-T cell activation. (A) Table of pharmacological inhibitors used during ex vivo expansion of rituximab CAR-T cells (left). Simplified schematic of the PI3K/AKT signaling axis where black arrows represent activation (right). (B) Activation marker expression by CAR^+ T cells in the absence of antigen stimulation after 5 days of pharmacological modulation. Data bars indicate the means of technical triplicates±1 S.D. The bars in FIG. 1B represent data from, untreated, vehicle, CAL-101, AZD5363, Rapamycin, MYCi975, and Betulin, respectively, from left to right. (C) TNF-α production CAR^+ T cells in the absence of antigen stimulation as quantified by intracellular flow cytometry. Data bars indicate the means of technical triplicates±1 S.D. The bars in FIG. 1B and FIG. 1C represent data from, untreated, vehicle, CAL-101, AZD5363, Rapamycin, MYCi975, and Betulin, respectively, from left to right. (D) Proliferation of CAR^+ T cells stained with CellTrace Violet (CTV) dye was assayed after a 4-day culture in the absence of target cells or exogenous cytokines. […] Statistical significance in panels B, C, and D was determined by two-tailed Student's t test with Sidak correction for multiple comparisons. * p<0.05, ** p<0.01, *** p<0.001, n.s. not statistically significant. […]

rituximab CAR-T cells [3] = test: CellTrace Violet proliferation assay without target cells or exogenous cytokines, rituximab CAR-T cells; assay type: cell-based, human; conditions: 4-day culture, CTV dye, vs vehicle (DMSO)
Protocol: (D) Proliferation of CAR^+ T cells stained with CellTrace Violet (CTV) dye was assayed after a 4-day culture in the absence of target cells or exogenous cytokines. Data shown in the histogram correspond to one of technical triplicates shown in the bar graph. The bars FIG. 1D represent data from, EGFRt, untreated, vehicle, CAL-101, AZD5363, Rapamycin, MYCi975, and Betulin, respectively, from left to right. […] In (B)-(F), results are representative two independent experiments using cells from of two heathy donors. Statistical significance in panels B, C, and D was determined by two-tailed Student's t test with Sidak correction for multiple comparisons. * p<0.05, ** p<0.01, *** p<0.001, n.s. not statistically significant.
For inhibitor analysis, starting on Day 8, T cells were cultured in T-cell media with cytokine support in the presence of 1 μM PI3K8 isoform inhibitor (CAL-101, Apex Biotechnology #A300520)), 1 μM AKT inhibitor (AZD5363, Selleckchem #S8019), 100 nM mTORC1 inhibitor (Rapamycin, LC Laboratories #R-5000), 2 μM c-Myc inhibitor (MYCi975, MedChemExpress #HY-129601), SREBP inhibitor (Betulin, MilliporeSigma #92648), or DMSO as a vehicle control. Each inhibitor molecule was solubilized in DMSO.
Proliferation assay. […] Cultures were passaged as needed, and CTV dilution was analyzed on a MACSQuant VYB flow cytometer after a 4-day co-incubation.

rituximab CAR-T cells [4] = test: T-cell subtype distribution (CD45RO/CD62L staining), rituximab CAR-T cells; assay type: cell-based, human; conditions: 5 days of pharmacological modulation, vs vehicle
Excerpt: as §2
as §1, with “3).” for “3). T-cell subtype of CAR-T cells was evaluated by antibody staining for CD45RO (VioBlue®, clone REA611, Miltenyi #130-119-620) and CD62L (APC, clone DREG56, Invitrogen #17-0629-42) after 5-6 days of inhibitor culture (FIG. 1, FIG. 3).”

Raji target cells = test: 24-hr lysis assay of inhibitor-treated rituximab CD20 CAR-T cells against Raji; assay type: cell-based; conditions: three E:T ratios, vs vehicle-treated
Excerpt: FIG. 1A-G. Pharmacological inhibition of PI3K/AKT pathway modulates antigen-independent CAR-T cell activation. (A) Table of pharmacological inhibitors used during ex vivo expansion of rituximab CAR-T cells (left). Simplified schematic of the PI3K/AKT signaling axis where black arrows represent activation (right). (B) Activation marker expression by CAR^+ T cells in the absence of antigen stimulation after 5 days of pharmacological modulation. Data bars indicate the means of technical triplicates±1 S.D. The bars in FIG. 1B represent data from, untreated, vehicle, CAL-101, AZD5363, Rapamycin, MYCi975, and Betulin, respectively, from left to right. (C) TNF-α production CAR^+ T cells in the absence of antigen stimulation as quantified by intracellular flow cytometry. Data bars indicate the means of technical triplicates±1 S.D. The bars in FIG. 1B and FIG. 1C represent data from, untreated, vehicle, CAL-101, AZD5363, Rapamycin, MYCi975, and Betulin, respectively, from left to right. (D) Proliferation of CAR^+ T cells stained with CellTrace Violet (CTV) dye was assayed after a 4-day culture in the absence of target cells or exogenous cytokines. Data shown in the histogram correspond to one of technical triplicates shown in the bar graph. The bars FIG. 1D represent data from, EGFRt, untreated, vehicle, CAL-101, AZD5363, Rapamycin, MYCi975, and Betulin, respectively, from left to right. (E) % distribution of T-cell subtypes in CAR^+ T cells after 5 days of pharmacological modulation. Data bars indicate the means of technical triplicates±1 S.D. (F) Rituximab CAR-T cell fold expansion after 6 days of inhibitor culture was tracked. […] Statistical significance in panels B, C, and D was determined by two-tailed Student's t test with Sidak correction for multiple comparisons. * p<0.05, ** p<0.01, *** p<0.001, n.s. not statistically significant.
Cytotoxicity assay with Raji cells. […] Remaining target cells were quantified by MACSQuant VYB flow cytometer 24-hr post co-incubation.

| Compound | prolonged median survival compared to vehicle (DMSO)-treated rituximab CAR-T cells (Raji tumor xenografts; NSG mice, Raji i.v.) | antigen-independent expression of activation and exhaustion markers (rituximab CAR-T cells [1]) | TNF-α production in the absence of antigen stimulation (rituximab CAR-T cells [2]) | antigen-independent cell division (rituximab CAR-T cells [3]) | fraction of naïve and stem-cell memory T (Tn/scm) cells / T-cell differentiation (rituximab CAR-T cells [4]) | lysis of Raji tumor cells (Raji target cells) | tumor outgrowth / tumor progression (Raji tumor xenografts; NSG mice, Raji i.v., preconditioned rituximab CAR-T cells, bioluminescence, vs vehicle control) | in vivo expansion of CAR-T cells (Raji tumor xenografts; human CD45+EGFRt+ cells in peripheral blood, day 8 after first T-cell dose, vs control) |
| --- | --- | --- | --- | --- | --- | --- | --- | --- |
| CC[C@H](Nc1ncnc2[nH]cnc12)c1nc2cccc(F)c2c(=O)n1-c1ccccc1 [CAL-101] | 1.5 folds | – | – | – | – | – | – | – |
| CO[C@H]1C[C@@H]2CC[C@@H](C)[C@@](O)(O2)C(=O)C(=O)N2CCCC[C@H]2C(=O)O[C@H]([C@H](C)C[C@@H]2CC[C@@H](O)[C@H](OC)C2)CC(=O)[C@H](C)/C=C(\C)[C@@H](O)[C@@H](OC)C(=O)[C@H](C)C[C@H](C)/C=C/C=C/C=C/1C [rapamycin, Rapamycin] | 1.8 folds | – | – | – | – | – | – | – |
| AZD5363 | 1.6 folds | significantly reduced | significantly reduced | significantly reduced | preserved a greater fraction | clustered together | delayed tumor outgrowth | significantly increased |
